Measured values: patent US20240228506A1, “RIPK1 INHIBITORS AND METHODS OF USE” (Merck Sharp & Dohme LLC, priority 2021, published 2024)

What follows are molecules tested against T1, GST-RIPK1 (recombinant GST-RIPK1 kinase domain (residues 1-327)) (Homo sapiens, UniProt Q13546) (assay: RIPK1-ADP-Glo enzymatic assay). Details: 25 nM GST-RIPK1, 300 μM ATP, 3 μM dephosphorylated-MBP; 30 minutes pre-incubation, 150 minutes reaction; ten-point titration.
T1 construct: recombinant GST-RIPK1 kinase domain (residues 1-327) enzyme; made in house; host or cells: baculovirus-transfected Sf21 insect cells
T1 sequence (Q13546 1-327): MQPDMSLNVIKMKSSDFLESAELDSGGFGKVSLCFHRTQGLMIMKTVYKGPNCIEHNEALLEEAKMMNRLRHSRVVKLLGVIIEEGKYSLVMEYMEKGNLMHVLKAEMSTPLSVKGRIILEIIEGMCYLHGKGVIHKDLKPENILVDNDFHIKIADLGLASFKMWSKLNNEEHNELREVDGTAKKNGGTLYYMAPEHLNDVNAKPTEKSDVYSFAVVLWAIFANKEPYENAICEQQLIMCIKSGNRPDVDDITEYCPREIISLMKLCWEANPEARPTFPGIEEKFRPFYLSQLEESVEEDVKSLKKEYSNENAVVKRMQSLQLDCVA
Type: biochemical
Method: The enzymatic activity of RIPK1 is measured using an assay derived from ADP-Glo kit (Promega™), which provides a luminescent-based ADP detection system. Specifically, the ADP generated by RIPK1 kinase is proportionally detected as luminescent signals in a homogenous fashion. In this context, the assessment of the inhibitory effect of small molecules (EC50) is measured by the effectiveness of the compounds to inhibit the ATP to ADP conversion by RIPK1. In this assay, the potency (EC50) of each compound was determined from a ten-point (1:3 serial dilution; top compound concentration of 100000 nM) titration curve using the following outlined procedure. To each well of a white ProxiPlus 384 well-plate, […] of compound (1% DMSO in final assay volume of 3 μL) was dispensed, followed by the addition of 2 μL of 1× assay buffer (25 mM Hepes 7.3, 20 mM MgCl2, 50 mM NaCl, 1 mM DTT, 0.005% Tween20, and 0.02% BSA) containing 37.5 nM of GST-RIPK1 (recombinant GST-RIPK1 kinase domain (residues 1-327) enzyme produced from baculovirus-transfected Sf21 cells: MW=62 kDa). Plates were placed in an ambient temperature humidified chamber for a 30 minutes pre-incubation with compound. Subsequently, each reaction was initiated by the addition of 1 μL 1×assay buffer containing 900 μM ATP and […]. The final reaction in each well of 3 μL consists of 25 nM of GST-RIPK1, 300 μM ATP, and 3 μM dephosphorylated-MBP. Kinase reactions were allowed to proceed for 150 minutes prior to adding ADP-Glo reagents per Promega's outlined kit protocol. Dose-response curves were generated by plotting percent effect (% product conversion; Y-axis) vs. Log10 compound concentrations (X-axis). EC50 values were calculated using a non-linear regression, four-parameters sigmoidal dose-response model.

IC50 [nM]	SMILES
134	O=C(N1C[C@@H]2C[C@H]1c1cncc(C#Cc3ncccn3)c1O2)C12CCC(C(F)(F)F)(CC1)C2 [Compound 2-68, ((2S,5S)-9-(pyrimidin-2-ylethynyl)-2,3-dihydro-2,5-methanopyrido[3,4-f][1,4]oxazepin-4(5H)-yl)(4-(trifluoromethyl)bicyclo [2.2.1]heptan-1-yl)methanone]
34	CC(C)(C(=O)N1C[C@@H]2C[C@H]1c1cncc(C#Cc3ccccc3F)c1O2)C(F)F [Compound 2-44, 3,3-difluoro-1-((2S,5S)-9-((2-fluorophenyl)ethynyl)-2,3-dihydro-2,5-methanopyrido[3,4-f][1,4]oxazepin-4(5H)-yl)-2,2-dimethylpropan-1-one]
49	N#Cc1cncc2c1S[C@H]1C[C@@H]2N(C(=O)C2(C#N)CCC2)C1 [Compound 4-6, (2S,5S)-4-(1-cyanocyclobutane-1-carbonyl)-2,3,4,5-tetrahydro-2,5-methanopyrido[3,4-f][1,4]thiazepine-9-carbonitrile]
176	CC(C)(C)C(=O)N1C[C@@H]2C[C@H]1c1cncc(C#Cc3cc(C(F)(F)F)ccn3)c1O2 [Compound 2-35, 2,2-dimethyl-1-((2S,5S)-9-((4-(trifluoromethyl)pyridin-2-yl)ethynyl)-2,3-dihydro-2,5-methanopyrido[3,4-f][1,4]oxazepin-4(5H)-yl)propan-1-one]
14	Cc1ccncc1C#Cc1cncc2c1O[C@H]1C[C@@H]2N(C(=O)C23CCC(C(F)(F)F)(CC2)C3)C1 [Compound 2-63, ((2S,5S)-9-((4-methylpyridin-3-yl)ethynyl)-2,3-dihydro-2,5-methanopyrido[3,4-f][1,4]oxazepin-4(5H)-yl)(4-(trifluoromethyl)bicyclo [2.2.1]heptan-1-yl)methanone]
18	CC(C)Oc1ncc(C#Cc2cncc3c2O[C@H]2C[C@@H]3N(C(=O)C(C)(C)C(F)F)C2)cn1 [Compound 2-74, 3,3-difluoro-1-((2S,5S)-9-((2-isopropoxypyrimidin-5-yl)ethynyl)-2,3-dihydro-2,5-methanopyrido[3,4-f][1,4]oxazepin-4(5H)-yl)-2,2-dimethylpropan-1-one]
32	O=C(N1C[C@@H]2C[C@H]1c1cncc(C#Cc3ccncn3)c1O2)C12CCC(C(F)(F)F)(CC1)C2 [Compound 2-67, ((2S,5S)-9-(pyrimidin-4-ylethynyl)-2,3-dihydro-2,5-methanopyrido[3,4-f][1,4]oxazepin-4(5H)-yl)(4-(trifluoromethyl)bicyclo [2.2.1]heptan-1-yl)methanone]
24	O=C(N1C[C@@H]2C[C@H]1c1cncc(C#Cc3ccc(F)cc3)c1O2)C12CCC(F)(CC1)C2 [Compound 2-122, (4-fluorobicyclo[2.2.1]heptan-1-yl)((2S,5S)-9-((4-fluorophenyl)ethynyl)-2,3-dihydro-2,5-methanopyrido[3,4-f][1,4]oxazepin-4(5H)-yl)methanone]
38	CC(C)(C(=O)N1C[C@@H]2C[C@H]1c1cncc(C#Cc3cncc(C#N)c3)c1O2)C(F)F [Compound 2-85, 5-(((2S,5S)-4-(3,3-difluoro-2,2-dimethylpropanoyl)-2,3,4,5-tetrahydro-2,5-methanopyrido[3,4-f][1,4]oxazepin-9-yl)ethynyl)nicotinonitrile]
377	O=C(N1C[C@@H]2C[C@H]1c1cncnc1O2)C12CCC(F)(CC1)C2 [Compound 3-3, ((5S,8S)-7,8-Dihydro-5,8-methanopyrimido[5,4-f][1,4]oxazepin-6(5H)-yl)(4-fluorobicyclo[2.2.1]heptan-1-yl)methanone]
73	O=C(N1C[C@@H]2C[C@H]1c1cncc(C#Cc3ccccn3)c1O2)C12CCC(C(F)(F)F)(CC1)C2 [Compound 2-60, ((2S,5S)-9-(pyridin-2-ylethynyl)-2,3-dihydro-2,5-methanopyrido[3,4-f][1,4]oxazepin-4(5H)-yl)(4-(trifluoromethyl)bicyclo [2.2.1]heptan-1-yl)methanone]
1360	CC(C)(C(=O)N1C[C@H]2Cc3c(C#N)cncc3[C@@H]1C2)C(F)F (single isomer, unassigned) [Compound 5-5]
34	CC(F)(F)C(C)(C)C(=O)N1C[C@@H]2C[C@H]1c1cncc(C#Cc3ccc(F)cc3)c1O2 [Compound 2-123, 3,3-difluoro-1-((25,5S)-9-((4-fluorophenyl)ethynyl)-2,3-dihydro-2,5-methanopyrido[3,4-f][1,4]oxazepin-4(5H)-yl)-2,2-dimethylbutan-1-one]
34	CC(C)(C(=O)N1C[C@@H]2C[C@H]1c1cncc(C#Cc3cncc(C(F)(F)F)c3)c1O2)C(F)F [Compound 2-89, 3,3-difluoro-2,2-dimethyl-1-((2S,5S)-9-((5-(trifluoromethyl)pyridin-3-yl)ethynyl)-2,3-dihydro-2,5-methanopyrido[3,4-f][1,4]oxazepin-4(5H)-yl)propan-1-one]

Further lines, the molecule ahead of its results:

SMILES	IC50 [nM]
N#Cc1cncc2c1O[C@H]1C[C@@H]2N(C(=O)C23CC(Cl)(C2)C3)C1 [Compound 1-93, (2S,5S)-4-(3-chlorobicyclo[1.1.1]pentane-1-carbonyl)-2,3,4,5-tetrahydro-2,5-methanopyrido[3,4-f][1,4]oxazepine-9-carbonitrile]	88
CC1(C(=O)N2C[C@@H]3C[C@H]2c2cncc(C#N)c2O3)CCC(F)(F)C1 (stereo partly drawn) [Compound 1-30, (2S,5S)-4-(3,3-difluoro-1-methylcyclopentane-1-carbonyl)-2,3,4,5-tetrahydro-2,5-methanopyrido[3,4-f][1,4]oxazepine-9-carbonitrile]	66
O=C(N1C[C@@H]2C[C@H]1c1cncc(F)c1O2)C12CCC(F)(CC1)CC2 [Compound 2-15, ((2S,5S)-9-fluoro-2,3-dihydro-2,5-methanopyrido[3,4-f][1,4]oxazepin-4(5H)-yl)(4-fluorobicyclo[2.2.2]octan-1-yl)methanone]	81
O=C(N1C[C@@H]2C[C@H]1c1cncc(Cl)c1O2)C1(C(F)F)CCC1 [Compound 2-12, ((2S,5S)-9-chloro-2,3-dihydro-2,5-methanopyrido[3,4-f][1,4]oxazepin-4(5H)-yl)(1-(difluoromethyl)cyclobutyl) methanone]	124
CC(C)(CC(F)F)C(=O)N1C[C@@H]2C[C@H]1c1cncc(C#N)c1O2 [Compound 1-15, (2S,5S)-4-(4,4-difluoro-2,2-dimethylbutanoyl)-2,3,4,5-tetrahydro-2,5-methanopyrido[3,4-f][1,4]oxazepine-9-carbonitrile]	99
CC(C)C(C)(C)C(=O)N1C[C@@H]2C[C@H]1c1cncc(C#N)c1O2 [Compound 1-34, (2S,5S)-4-(2,2,3-trimethylbutanoyl)-2,3,4,5-tetrahydro-2,5-methanopyrido[3,4-f][1,4]oxazepine-9-carbonitrile]	24
C#Cc1cncc2c1O[C@H]1C[C@@H]2N(C(=O)C(C)(C)C)C1 [Compound 2-17, 1-((2S,5S)-9-Ethynyl-2,3-dihydro-2,5-methanopyrido[3,4-f][1,4]oxazepin-4(5H)-yl)-2,2-dimethylpropan-1-one]	50
N#Cc1cncc2c1O[C@H]1C[C@@H]2N(C(=O)C2(F)CCN(C(=O)c3ccccc3)CC2)C1 [Compound 1-54, (2S,5S)-4-(1-benzoyl-4-fluoropiperidine-4-carbonyl)-2,3,4,5-tetrahydro-2,5-methanopyrido[3,4-f][1,4]oxazepine-9-carbonitrile]	116
CC1(C(=O)N2C[C@@H]3C[C@H]2c2cncc(C#N)c2O3)CCCO1 (mixture of isomers) [Compound 1-64, (2S,5S)-4-(2-(S and R)-methyltetrahydrofuran-2-carbonyl)-2,3,4,5-tetrahydro-2,5-methanopyrido[3,4-f][1,4]oxazepine-9-carbonitrile]	729
N#Cc1cncc2c1O[C@H]1C[C@@H]2N(C(=O)C2(F)CCN(c3nccn4ncnc34)CC2)C1 [Compound 1-58, (2S,5S)-4-(1-([1,2,4]triazolo[1,5-a]pyrazin-8-yl)-4-fluoropiperidine-4-carbonyl)-2,3,4,5-tetrahydro-2,5-methanopyrido[3,4-f][1,4]oxazepine-9-carbonitrile]	74
CC(C)(C)C(=O)N1C[C@@H]2C[C@H]1c1cncc(C#Cc3ccccc3)c1O2 [Compound 2-20, 2,2-Dimethyl-1-((2S,5S)-9-(phenylethynyl)-2,3-dihydro-2,5-methanopyrido[3,4-f][1,4]oxazepin-4(5H)-yl)propan-1-one]	72
